The nature of this data set: Acid dissociation constant (pKa) by titration with sodium hydroxide, pH meter, in water/methanol 1:1. The class given is physicochemical. The method, then:
In Table 1, the acid dissociation constant of a compound was measured by the following method:
A commercially available pH meter "HORIBA N-8F" (Trademark), made by Horiba Ltd., equipped with three composite electrodes, was calibrated by using the following two solutions:
Water/methanol solution (with a volume ratio of 1:1) containing 0.05 mol/l potassium hydrogenphthalate.
Water/methanol solution (with a volume ratio of 1:1) containing 0.01 mol/l tris(hydroxy)aminomethane and 0.01 mol/l tris(hydroxy)aminomethane hydrochloride.
Then, a solution A was prepared in such a manner that 0.4969 g of 4-(4'-phenoxybutoxy)phthalic acid (Compound No. 1 in Table 1) and 0.5844 g of sodium chloride,were dissolved in a mixed solvent consisting of 50 ml of water and 50 ml of methanol.
In addition, a 0.1068 mol/l sodium hydroxide aqueous solution was prepared by standardizing the solution with potassium hydrogen-phthalate. This solution was hereinafter referred to as a solution B.
The solution A was placed in a beaker and stirred with a stirrer. The solution B was added dropwise in an amount of 0.5 to 1.0 ml to the solution A, with stirring, through a buret. When the pH of the solution A reached a constant value, the pH was measured. The pH was further measured with further addition of the solution B to the solution A, so that a titration curve was obtained. This titration curve was fitted in a theoretical formula by using a computer program, so that an acid dissociation constant of the compound No. 1 was calculated.

Setting [1] is: comparative color developer, solvent not given.
[2] abbreviates: mixed solvent of water and methanol, volume ratio 1:1.

On to `CC(C)(c1ccc(O)cc1)c1ccc(O)cc1` [4,4'-isopropylidene diphenol], for which, under setting [1], the “acid dissociation constant pKa1 (printed pKal)” value is given as about 10.7 and the “acid dissociation constant pKa2” value was 10.7.
Consider `CC(C)Oc1ccc(S(=O)(=O)c2ccc(O)cc2)cc1` [4-isopropoxy-4'-hydroxydiphenylsulfone], for which the “acid dissociation constant pKa” value under setting [1] stood at 8.27.
As to `O=C(O)c1ccc(OCCCCOc2ccccc2)cc1C(=O)O` [Compound No. 1, 4-(4'-phenoxybutoxy)phthalic acid], under setting [2], the “Acid Dissociation Constant pKa1” value is listed as 3.55 and the “acid dissociation constant pKa2” value was found to be 6.59.

(Values after patent US5447900A, “Thermosensitive recording material” (priority 1993, dated 1995).)
